{
  "source": "ChEMBL document CHEMBL1201862",
  "about": "“PubChem BioAssay data set” (2004)",
  "key": {"[1]": {"assay": "NIH-3T3 fibroblast cytotoxicity, dose response, cytotoxicity control, cell-based, fluorescence, Alamar Blue, secondary assay (AID 2327);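 note: NIH-3T3 mouse fibroblasts cultured with fluconazole at 8 µg/mL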", "assay_type": "functional"}, "[2]": {"assay": "C. albicans growth with fluconazole, confirmation, fluorescence, retest (AID 2467)", "assay_type": "functional, cell-based"}, "[3]": {"assay": "Luminescence Cell-Based Dose Retest to Confirm Inhibitors of Cancer Stem Cells. [Related pubchem assays (depositor defined):AID2717, AID2721]", "assay_type": "functional", "conditions": "Homo sapiens"}, "Bcl-2-related protein A1": {"molecular_target": "T1, Bcl-2-related protein A1 (Mus musculus, UniProt Q07440)", "T1 sequence (Q07440 whole entry)": "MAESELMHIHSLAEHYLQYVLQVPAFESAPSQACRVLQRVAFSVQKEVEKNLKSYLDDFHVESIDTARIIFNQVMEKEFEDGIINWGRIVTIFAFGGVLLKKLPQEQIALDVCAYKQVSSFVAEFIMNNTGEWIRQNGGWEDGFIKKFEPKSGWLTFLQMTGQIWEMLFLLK", "assay_type": "functional"}, "[4]": {"molecular_target": "T2, Ubiquitin-conjugating enzyme E2 N (Homo sapiens, UniProt P61088)", "T2 sequence (P61088 whole entry)": "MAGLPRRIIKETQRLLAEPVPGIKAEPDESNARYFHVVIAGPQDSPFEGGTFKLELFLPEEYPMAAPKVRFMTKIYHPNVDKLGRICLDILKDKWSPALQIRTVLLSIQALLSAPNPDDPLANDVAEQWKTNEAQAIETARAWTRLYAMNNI", "assay_type": "functional"}, "[5]": {"molecular_target": "T2, Ubiquitin-conjugating enzyme E2 N", "assay_type": "functional", "remark": "listed apart in the source"}, "[6]": {"molecular_target": "T3, DNA repair protein RAD52 homolog (Homo sapiens, UniProt P43351)", "T3 sequence (P43351 whole entry)": "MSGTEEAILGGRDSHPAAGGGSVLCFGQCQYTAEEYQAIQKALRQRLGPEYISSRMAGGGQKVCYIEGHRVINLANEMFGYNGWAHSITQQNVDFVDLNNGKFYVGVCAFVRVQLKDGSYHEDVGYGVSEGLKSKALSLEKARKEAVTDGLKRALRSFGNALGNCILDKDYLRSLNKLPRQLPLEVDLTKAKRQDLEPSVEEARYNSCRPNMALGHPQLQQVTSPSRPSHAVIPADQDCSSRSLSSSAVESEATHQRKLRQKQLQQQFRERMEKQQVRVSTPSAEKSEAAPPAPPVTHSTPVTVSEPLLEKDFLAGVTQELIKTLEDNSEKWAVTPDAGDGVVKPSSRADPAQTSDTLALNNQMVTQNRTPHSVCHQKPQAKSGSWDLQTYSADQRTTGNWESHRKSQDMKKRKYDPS", "assay_type": "functional, biochemical"}, "Paired box protein Pax-8": {"molecular_target": "Paired box protein Pax-8 (Homo sapiens, UniProt Q06710)", "sequence (Q06710 whole entry)": "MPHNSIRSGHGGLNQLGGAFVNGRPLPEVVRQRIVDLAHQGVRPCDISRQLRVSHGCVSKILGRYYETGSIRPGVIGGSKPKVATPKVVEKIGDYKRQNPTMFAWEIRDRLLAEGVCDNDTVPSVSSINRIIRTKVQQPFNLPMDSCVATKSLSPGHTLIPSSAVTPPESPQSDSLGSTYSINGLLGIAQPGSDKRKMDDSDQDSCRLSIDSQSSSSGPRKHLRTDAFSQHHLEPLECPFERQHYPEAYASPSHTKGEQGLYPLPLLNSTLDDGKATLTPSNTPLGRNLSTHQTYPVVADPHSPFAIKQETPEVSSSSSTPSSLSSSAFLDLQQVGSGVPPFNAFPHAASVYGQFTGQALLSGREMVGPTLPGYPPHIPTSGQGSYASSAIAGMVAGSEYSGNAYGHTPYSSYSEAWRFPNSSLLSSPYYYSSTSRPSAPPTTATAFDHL", "assay": "inhibitors of PAX8-driven TPO luciferase reporter, dose response, RMG-I cells, cherry-pick (AID 687027);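 note: luciferase reporter driven by Pax8 target thyroperoxidase promoter measured by SteadyGlo luminescence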", "assay_type": "functional, cell-based"}, "[7]": {"assay": "non-specific cell cytotoxicity, dose response, cytotoxicity control for PAX8 inhibitor project, plate reader, dry powder samples (AID 743021)", "assay_type": "functional, cell-based"}, "[8]": {"assay": "inhibitors of PGC1a acetylation in cells, dose response, cell-based, cherry-picked samples (AID 720514);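 note: potency may reflect raised or lowered acetylation signal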", "assay_type": "functional"}, "Large T antigen": {"molecular_target": "Large T antigen (Simian virus 40, UniProt P03070)", "sequence (P03070 whole entry)": "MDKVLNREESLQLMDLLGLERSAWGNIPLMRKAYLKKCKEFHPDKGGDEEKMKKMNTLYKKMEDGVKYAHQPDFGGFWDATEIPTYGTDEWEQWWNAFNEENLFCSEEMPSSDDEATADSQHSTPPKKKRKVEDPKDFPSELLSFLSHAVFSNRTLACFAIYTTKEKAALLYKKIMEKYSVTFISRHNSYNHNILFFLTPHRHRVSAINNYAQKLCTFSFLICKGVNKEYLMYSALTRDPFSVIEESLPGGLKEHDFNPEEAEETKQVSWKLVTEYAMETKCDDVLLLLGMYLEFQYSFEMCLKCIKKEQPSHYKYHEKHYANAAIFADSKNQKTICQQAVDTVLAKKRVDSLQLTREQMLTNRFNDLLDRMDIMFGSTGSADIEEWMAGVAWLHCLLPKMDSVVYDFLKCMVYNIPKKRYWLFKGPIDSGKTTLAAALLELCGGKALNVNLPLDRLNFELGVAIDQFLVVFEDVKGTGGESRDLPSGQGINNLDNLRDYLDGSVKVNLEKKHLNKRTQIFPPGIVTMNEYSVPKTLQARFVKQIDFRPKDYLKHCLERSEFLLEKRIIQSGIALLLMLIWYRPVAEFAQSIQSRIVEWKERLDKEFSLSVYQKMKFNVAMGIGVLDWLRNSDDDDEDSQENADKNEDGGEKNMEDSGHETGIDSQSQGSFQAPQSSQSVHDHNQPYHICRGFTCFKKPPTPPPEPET", "assay_type": "functional, Betapolyomavirus macacae"}, "[9]": {"assay": "inhibitors of Vif binding to APOBEC3G peptide, primary screen, biochemical, TR-FRET, GST-Vif 1-94, biotin-A3G peptide, dose response retest (AID 1117319);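 note: inhibitors lower the FRET signal by blocking Vif and A3G binding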", "assay_type": "functional"}, "[10]": {"assay": "inhibitors of HIV Env-driven cell fusion, dose response, cherry-pick (AID 652057)", "assay_type": "functional, cell-based"}, "[11]": {"assay": "CEM21 lymphoblast cell cytotoxicity, dose response, cytotoxicity control for viral fusion inhibitor project, CellTiter-Glo luminescence, cherry-picked (AID 652042);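 note: potency for signal decrease meaning cytotoxicity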", "assay_type": "functional, cell-based"}, "[12]": {"assay": "off-target signal loss in HeLa-CEM21 co-culture – HeLa F-luc CTL cells, cherry-picked, counter-screen for HIV-1 Env fusion inhibitor project, dose response (AID 652040);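 note: potency for signal decrease marking cytotoxic or nonspecific inhibition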", "assay_type": "functional, cell-based"}, "[13]": {"assay": "inhibitors of clade B AD8 Env fusion, dose response, cell-based, cherry-pick (AID 652062);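 note: potency is for inhibitors of fusion seen as a drop in luminescence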", "assay_type": "functional"}, "[14]": {"assay": "A549 cell cytotoxicity, dose response, cytotoxicity control, plate reader, cherry-pick, antagonist series (AID 743412)", "assay_type": "functional, cell-based"}, "[15]": {"assay": "HepG2 cell cytotoxicity, dose response, cytotoxicity control, plate reader, cherry-pick, antagonist series (AID 743416)", "assay_type": "functional, cell-based"}, "[16]": {"assay": "LGR2 antagonists, dose response, cell-based, HEK293, CRE-luciferase reporter, cherry pick, set 2 (AID 743343);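 note: transfected cells were stimulated with diluted bursicon conditioned medium after compound addition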", "assay_type": "functional"}, "[17]": {"assay": "MC4R antagonists, dose response, counter-screen for LGR2 antagonist project, cell-based, plate reader, cherry pick (AID 743444);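 note: transfected HEK 293 cells stimulated with alpha-MSH peptide; potency of inhibitors of the alpha-MSH evoked signal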", "assay_type": "functional"}, "[18]": {"assay": "HEK293 cell cytotoxicity, dose response, cytotoxicity control, plate reader, cherry-picked samples (AID 743446)", "assay_type": "functional, cell-based"}},
  "note": "Active and inactive are the calls of the source.",
  "data": [
    {"smiles": "CN1CCN(CCCNC(=O)c2ccc(/C=C3\\Oc4ccccc4N(Cc4ccc(Cl)cc4)C3=O)cc2)CC1", "values": [
      {"measurement": "EC50", "setting": "[1]", "value": "> 150 µM (inconclusive)"},
      {"measurement": "EC50", "setting": "[2]", "value": "> 38 µM (not active)"},
      {"measurement": "AC50", "setting": "[3]", "value": "3.55 µM (active)"},
      {"measurement": "IC50", "setting": "Bcl-2-related protein A1", "value": "> 20 µM (inactive)"},
      {"measurement": "IC50", "setting": "[4]", "value": "12.4 µM (active)"},
      {"measurement": "IC50", "setting": "[5]", "value": "1.35 µM (active)"},
      {"measurement": "AC50", "setting": "[6]", "value": "17.9 µM (active)"},
      {"measurement": "AC50", "setting": "Paired box protein Pax-8", "value": "16.9 µM (active)"},
      {"measurement": "AC50", "setting": "[7]", "value": "0.974 µM (active)"}
    ]},
    {"smiles": "CN(C)c1nc(SCCOC(=O)COc2ccc(Cl)cc2Cl)nc(N(C)C)n1", "values": [
      {"measurement": "AC50", "setting": "[8]", "value": "26.1 µM (active)"}
    ]},
    {"smiles": "COc1cc([N+](=O)[O-])ccc1NC(=O)Oc1ccc(NC(C)=O)cc1", "values": [
      {"measurement": "IC50", "setting": "Large T antigen", "value": "8.79 µM (active)"},
      {"measurement": "IC50", "setting": "[9]", "value": "> 100 µM (active)"}
    ]},
    {"smiles": "CCOC(=O)c1cnc2ccc(OCC)cc2c1NCc1ccccc1OC", "values": [
      {"measurement": "AC50", "setting": "[3]", "value": "4.51 µM (active)"},
      {"measurement": "AC50", "setting": "[10]", "value": "10.6 µM (active)"},
      {"measurement": "AC50", "setting": "[11]", "value": "19.4 µM (active)"},
      {"measurement": "AC50", "setting": "[12]", "value": "25.7 µM (active)"},
      {"measurement": "AC50", "setting": "[13]", "value": "35.4 µM (active)"}
    ]},
    {"smiles": "Cc1ccn2cc(-c3ccc(Br)cc3)nc2c1", "values": [
      {"measurement": "AC50", "setting": "[14]", "value": "> 52 µM (inactive)"},
      {"measurement": "AC50", "setting": "[15]", "value": "49.2 µM (active)"},
      {"measurement": "AC50", "setting": "[16]", "value": "3.6 µM (active)"},
      {"measurement": "AC50", "setting": "[17]", "value": "2.76 µM (active)"},
      {"measurement": "AC50", "setting": "[18]", "value": "42.6 µM (active)"}
    ]},
    {"smiles": "Cc1ccc(CNC(=O)C2c3ccccc3C(=O)N3CCc4ccccc4C23)o1", "note": "(stereo not drawn)", "values": [
      {"measurement": "IC50", "setting": "[9]", "value": "> 100 µM (active)"}
    ]}
  ]
}
